Where no end group is shown, it is not given here.
System: Staphylococcus aureus IFO 12732
Type: cell-based
Settings: for Antimicrobial Activities (MIC) S. aureus (24 hours later): 37° C., turbidity 24 hours later, diluents approximately 50 μM to approximately 0.39 μM, approximately 1×10^6 cells/mL
Method: Regarding the antimicrobial peptide in each of samples 1 to 14, the antimicrobial activities (minimum inhibitory concentration: MIC) with respect to gram-positive bacteria (Staphylococcus aureus IFO 12732) were determined, as described below, by a liquid medium dilution technique using a 96-well microplate. Staphylococcus aureus bacteria are inoculated from a preservation medium to an agar plate medium (“Muller Hinton Agar” manufactured by DIFCO), and thereafter stationary cultured for 18 hours at 37° C. Cultured bacteria were scratched twice using a disposable loop, and gathered bacteria were suspended in 5 mL of physiological saline. The OD660 value of the bacterial suspension derived from diluting the suspension 10 times with physiological saline was determined. The bacterial suspension used in the following tests was prepared by utilizing physiological saline, such that its OD660 value was 0.1 (therefore, bacteria concentration: approximately 2×10^7 cells/mL).
Each peptide sample derived by the above-described method was dissolved with sterile distilled water, which served as a carrier in the present example, to prepare a drug of predetermined concentration. More specifically, an appropriate amount of peptide sample were added into an Eppendorf (registered trademark) tube with an appropriate capacity, and such peptide sample were dissolved with sterile distilled water to prepare 2 mM of drug (peptide solution). The derived drug was appropriately diluted, and each diluent of approximately 50 μM to approximately 0.39 μM was prepared. Thereafter, each diluent was respectively introduced into the well of a polystyrene 96-round-bottom-well microplate prepared in advance. Next, 5 μL of the bacterial suspension having 0.1 OD660 was added (test bacteria quantity: approximately 1×10^6 cells/mL) respectively to each well containing the diluent of each concentration. The microplate was then incubated in an incubator at 37° C., and the presence of bacteria was evaluated based on the turbidity 24 hours later. The minimum drug concentration (peptide concentration), in which an increased in turbidity caused by bacteria was not detected at the time of measurement, was defined as MIC (unit: μM) in the present example.

For RLIKLLYQ-NH2 [Sample 6, RLIKLLYQ], the “Antimicrobial Activities (MIC) S. aureus (24 hours later)” value (shortened to “Antimicrobial Activities”) was 25 µM.
For VRFIKFLYQ-NH2 [Sample 3, VRFIKFLYQ], the “Antimicrobial Activities” value was 25 µM.
For “KTKEGVKT (KTKEGVKT-NH2) [Comparative Sample 1, reference compound]”, the “Antimicrobial Activities” value was “No Activity” and the “antimicrobial activity (in words)” value (summary of Table 2) was “no antimicrobial activity was detected”.
With “RELLTAVRIIKILYQ-NH2 [Sample 12, RELLTAVRIIKILYQ]” the “Antimicrobial Activities” value was 25 µM.
For VRLIKFLYQ-NH2 [Sample 2, VRLIKFLYQ], the “Antimicrobial Activities” value was 12.5 µM.
With “EDLLKAVRLIKFLYQ-NH2 [Sample 9, EDLLKAVRLIKFLYQ]” the “Antimicrobial Activities” value was 25 µM.
IRLIKFLYQ-NH2 [Sample 5, IRLIKFLYQ] was tested, and the “Antimicrobial Activities” value was 25 µM.
In the case of “ENLLKAIRLIKFLYQ-NH2 [Sample 14, ENLLKAIRLIKFLYQ]”, the “Antimicrobial Activities” value was 6.25 µM.
For “RLIKLLYQRLIKLLYQ-NH2 [Sample 7, RLIKLLYQ RLIKLLYQ]”, the “Antimicrobial Activities” value was 6.25 µM.
“RRAAQAVRLIKLLYQ-NH2 [Sample 11, RRAAQAVRLIKLLYQ]” was tested, and the “Antimicrobial Activities” value was 6.25 µM.
“EELLKAVRLIKLLYQ-NH2 [Sample 8, EELLKAVRLIKLLYQ]” was tested, and the “Antimicrobial Activities” value was 25 µM.
In the case of “EDLLRTVRLIKVLYQ-NH2 [Sample 13, EDLLRTVRLIKVLYQ]”, the “Antimicrobial Activities” value was 50 µM.
With `CC[C@H](C)[C@H](NC(=O)[C@H](CC(C)C)NC(=O)[C@H](CCCNC(=N)N)NC(=O)[C@@H](NC(=O)[C@@H](NC(=O)[C@H](CCCNC(=N)N)NC(=O)[C@@H](NC(=O)[C@H](CC(C)C)NC(=O)[C@H](CCC(=O)O)NC(=O)[C@@H](N)CCC(=O)O)[C@@H](C)CC)[C@@H](C)O)C(C)C)C(=O)N[C@@H](CCCCN)C(=O)N[C@@H](CC(C)C)C(=O)N[C@@H](CC(C)C)C(=O)N[C@@H](Cc1ccc(O)cc1)C(=O)N[C@@H](CCC(N)=O)C(N)=O` [Sample 10, EELIRTVRLIKLLYQ] the “Antimicrobial Activities” value was 25 µM.
For `CC[C@H](C)[C@H](NC(=O)[C@H](CC(C)C)NC(=O)[C@H](CCCNC(=N)N)NC(=O)[C@@H](N)C(C)C)C(=O)N[C@@H](CCCCN)C(=O)N[C@@H](CC(C)C)C(=O)N[C@@H](CC(C)C)C(=O)N[C@@H](Cc1ccc(O)cc1)C(=O)N[C@@H](CCC(N)=O)C(N)=O` [Sample 1, VRLLKLLYQ], the “Antimicrobial Activities” value was 50 µM.

Source: patent US7615534B2, “Antimicrobial peptides and use thereof” (Toagosei Co., Ltd, priority 2005, dated 2009)
